# In patent US5066585A, “Method of inhibiting fungus using novel antifungal compounds” (priority 1990, dated 1991):
# Read-outs that look alike come from different tables or passages of the source.
# Experiments:
# murine tumors = conditions: more active than adriamycin; cited from earlier work
# Solubility = type: physicochemical
# [1] = test system: Candida albicans, Aspergillus fumigatus, and Cladosporium spp. fungi; experiment: TLC bioassay for the detection of the biological activity; type: cell-based; conditions: bands at Rf 0.48 and 0.72, CHCl3-MeOH 16:1
# Protocol: The crude extract obtained from the mycelium was spotted on a TLC plate (5×20, […]) and developed (CHCl3 -MeOH, 16:1 v/v). The plate was then marked under UV and visible light for individual spots or regions. The spores of the agar slant culture of the test organism was suspended in 10 ml of sterile physiological saline. The growth medium containing agar was then shaken well with 50 ul of the above suspension (35-40° C.) and poured over the developed TLC plate uniformly and allowed to set. The plates were then placed in a moist chamber and incubated at 26° C. for 24 to 72 hours and the zone of inhibition was recorded for the respective spots of the plate. The test organisms were Candida albicans, Aspergillus fumigatus, and Cladosporium spp. fungi and the growth medium was potato dextrose agar (PDA, 39 g/l).
# Escherichia coli = experiment: MIC against Escherichia coli; type: cell-based; conditions: bacterial strain, 100,000 CFU
# Protocol: (§1) Known amounts of the purified substance were dissolved in DMSO and serial dilutions prepared in the same solvent. A 20 ul volume of each dilution was placed on the surface of Emmon's agar in petri-dishes seeded with various test strains of pathogenic and saprophytic fungi. The antibacterial activity was monitored using Muller-Hilton agar. The minimum inhibitory concentration (MIC) was determined by incorporating known amount of the DMSO dissolved purified substance into Emmon's liquid medium (same as stated earlier but devoid of agar) contained in test tubes. The tubes were inoculated with ca 2×10^3 CFU of the test organisms. The inoculated tubes were incubated at 26° C. and the results recorded after two to 5 days' depending upon the growth pattern of the test organisms (certain fungi grow faster than others). Tubes inoculated in an identical manner but devoid of the active substance served as controls.
# (§2) Minimum inhibitory concentration of Spartanamycin-B against certain bacteria and fungi. (The substance was dissolved in DMSO, 20 ul of the solution was mixed with two ml of liquid Emmons medium containing ca 10,000 Colony forming Units of fungal test strains or 100,000 CFU's of bacterial test strains).
# R. glutinis = experiment: MIC against R. glutinis, broth dilution; type: cell-based; conditions: fungus, ca 10,000 CFU, liquid Emmons medium
# Protocol: as §1, §2
# [2] = test system: Staphylococcus aureus ATCC 29213; experiment: MIC against Staphylococcus aureus ATCC 29213; type: cell-based; conditions: bacterial strain, 100,000 CFU
# Protocol: as §1, §2
# [3] = test system: Cryptococcus neoformans-N-2; experiment: MIC against Cryptococcus neoformans-N-2, broth dilution; type: cell-based; conditions: N = encapsulated, mucoid strain with neurotropic tendencies, ca 10,000 CFU
# Protocol: as §1, §2
# Candida albicans = experiment: MIC against Candida albicans, broth dilution; type: cell-based; conditions: fungus, ca 10,000 CFU, liquid Emmons medium, DMSO solution
# Protocol: as §1, §2
# C. neoformans serotype-D = experiment: MIC against C. neoformans serotype-D, broth dilution; type: cell-based; conditions: ca 10,000 CFU, liquid Emmons medium
# Protocol: as §1, §2
# Pseudomonas aeruginosa = experiment: MIC against Pseudomonas aeruginosa; type: cell-based; conditions: bacterial strain, 100,000 CFU
# Protocol: as §1, §2
# [4] = test system: S. aureus (multiple drug resistant); experiment: MIC against S. aureus (multiple drug resistant); type: cell-based; conditions: bacterial strain, 100,000 CFU
# Protocol: as §1, §2
# Plebsiella pneumoniae = experiment: MIC against Plebsiella pneumoniae; type: cell-based; conditions: bacterial strain, 100,000 CFU
# Protocol: as §1, §2
# Aspergillus fumigatus = experiment: MIC against Aspergillus fumigatus, broth dilution; type: cell-based; conditions: fungus, ca 10,000 CFU, liquid Emmons medium, DMSO solution
# Protocol: as §1, §2
# S. aureus ATCC 25923 = experiment: MIC against S. aureus ATCC 25923; type: cell-based; conditions: bacterial strain, 100,000 CFU
# Protocol: as §1, §2
# Citrobacter species = experiment: MIC against Citrobacter species; type: cell-based; conditions: bacterial strain, 100,000 CFU
# Protocol: as §1, §2
# Penicillium species = experiment: MIC against Penicillium species, broth dilution; type: cell-based; conditions: fungus, ca 10,000 CFU, liquid Emmons medium, DMSO solution
# Protocol: as §1, §2
# C. neoformans-N-3 = experiment: MIC against C. neoformans-N-3, broth dilution; type: cell-based; conditions: N = encapsulated, mucoid strain with neurotropic tendencies, ca 10,000 CFU
# Protocol: as §1, §2
# C. neoformans serotype-C = experiment: MIC against C. neoformans serotype-C, broth dilution; type: cell-based; conditions: ca 10,000 CFU, liquid Emmons medium
# Protocol: as §1, §2
# Cladosporium species = experiment: MIC against Cladosporium species, broth dilution; type: cell-based; conditions: fungus, ca 10,000 CFU, liquid Emmons medium, DMSO solution
# Protocol: as §1, §2
# [5] = stability on standing in 2N HCl; type: physicochemical; conditions: upon standing in 2N HCl
# C. quilliermondii = experiment: MIC against C. quilliermondii, broth dilution; type: cell-based; conditions: fungus, ca 10,000 CFU, liquid Emmons medium, DMSO solution
# Protocol: as §1, §2
# A. flavus = experiment: MIC against A. flavus, broth dilution; type: cell-based; conditions: fungus, ca 10,000 CFU, liquid Emmons medium, DMSO solution
# Protocol: as §1, §2
# C. neoformans-G-3 = experiment: MIC against C. neoformans-G-3, broth dilution; type: cell-based; conditions: G = nonencapsulated, drypasty, highly virulent strain, ca 10,000 CFU
# Protocol: as §1, §2
# A. niger = experiment: MIC against A. niger, broth dilution; type: cell-based; conditions: fungus, ca 10,000 CFU, liquid Emmons medium, DMSO solution
# Protocol: as §1, §2
# Rhodotorula rubra = experiment: MIC against Rhodotorula rubra, broth dilution; type: cell-based; conditions: fungus, ca 10,000 CFU, liquid Emmons medium
# Protocol: as §1, §2
# [6] = comparison compounds; cited from earlier work
# fungi = conditions: comparison compounds from Streptomyces; cited from earlier work
# [7] = hexane, cyclohexane, water and 2N HCl
structure (smiles),measurement,setting,value
CCN[C@H]1CO[C@@H](O[C@H]2[C@H](O[C@H]3C#C/C=C\C#C[C@]4(O)CC(=O)C(NC(=O)OC)=C3/C4=C\CSSSC)O[C@H](C)[C@@H](NO[C@H]3C[C@H](O)[C@H](SC(=O)c4c(C)c(I)c(O[C@@H]5O[C@@H](C)[C@H](O)[C@@H](OC)[C@H]5O)c(OC)c4OC)[C@@H](C)O3)[C@@H]2O)C[C@@H]1OC [Calicheamicin],activity relative to adriamycin against murine tumors,murine tumors,approximately 1000 fold
CCC1(O)CC(OC2CC(N(C)C)C(OC3CC4OC5CC(=O)C(C)OC5OC4C(C)O3)C(C)O2)c2c(cc3c(c2O)C(=O)c2c(O)ccc(O)c2C3=O)C1C(=O)OC (stereo not shown) [Spartanamicin A],Solubility,"Solubility; 1-butanol, ethanol, methanol",Sparingly soluble
same,Solubility,"Solubility; chloroform, carbon tetrachloride, toluene, ethyl acetate, DMF, DMSO, acetonitrile, acetone and glacial acetic acid",Soluble
same,Solubility,Solubility; [7],Insoluble
same,solubility in methanol and ethanol,Solubility,not soluble
same,biological activity of TLC band,[1],biologically active
CC[C@@]1(O)C[C@H](O[C@H]2C[C@H](N(C)C)[C@H](O[C@H]3C[C@H](O)[C@H](O[C@H]4CCC(=O)[C@H](C)O4)[C@H](C)O3)[C@H](C)O2)c2c(cc3c(c2O)C(=O)c2c(O)ccc(O)c2C3=O)[C@H]1C(=O)OC [Spartanamicin B],MIC,Escherichia coli,not active
same,MIC,R. glutinis,0.4 µg/mL
same,MIC,[2],0.8 µg/mL
same,MIC,[3],0.8 µg/mL
same,MIC,Candida albicans,0.2 µg/mL
same,MIC,C. neoformans serotype-D,0.8 µg/mL
same,MIC,Pseudomonas aeruginosa,100 µg/mL
same,Solubility,"Solubility; 1-butanol, ethanol, methanol, acetonitrile",Sparingly soluble
same,Solubility,"Solubility; chloroform, carbon tetrachloride, toluene, ethyl acetate, DMF, DMSO, acetone and glacial acetic acid",Soluble
same,Solubility,Solubility; [7],Insoluble
same,solubility in methanol and ethanol,Solubility,not soluble
same,MIC,[4],not active
same,MIC,Plebsiella pneumoniae,100 µg/mL
same,biological activity of TLC band,[1],biologically active
same,MIC,Aspergillus fumigatus,0.4 µg/mL
same,MIC,S. aureus ATCC 25923,0.8 µg/mL
same,MIC,Citrobacter species,not active
same,MIC,Penicillium species,0.2 µg/mL
same,MIC,C. neoformans-N-3,0.6 µg/mL
same,MIC,C. neoformans serotype-C,0.8 µg/mL
same,MIC,Cladosporium species,0.4 µg/mL
same,stability in 2N HCl,[5],hydrolyses
same,MIC,C. quilliermondii,0.8 µg/mL
same,MIC,A. flavus,0.6 µg/mL
same,MIC,C. neoformans-G-3,1.0 µg/mL
same,MIC,A. niger,0.6 µg/mL
same,MIC,Rhodotorula rubra,0.8 µg/mL
CCC1(O)CC(OC2CC(N(C)C)C(OC3CC(O)C(OC4CCC(=O)C(C)O4)C(C)O3)C(C)O2)c2c(cc3c(c2O)C(=O)c2c(O)ccc(O)c2C3=O)C1C(=O)OC (stereo not shown) [cinerubin A],solubility in methanol and ethanol,[6],soluble
same,antifungal properties,fungi,not significantly antifungal
CCC1(O)CC(OC2CC(N(C)C)C(OC3CC4OC5CC(=O)C(C)OC5OC4C(C)O3)C(C)O2)c2c(cc3c(c2O)C(=O)c2c(O)ccc(O)c2C3=O)C1C(=O)OC (stereo not shown) [cinerubin B],solubility in methanol and ethanol,[6],soluble
same,antifungal properties,fungi,not significantly antifungal
